# Measurements as given in BindingDB's records for doi:10.1016/j.bmc.2017.01.005 (University of New Mexico, 2017).
# Target: T1, Nuclear factor erythroid 2-related factor 2 (Homo sapiens, UniProt Q16236)
# T1 sequence (Q16236 whole entry): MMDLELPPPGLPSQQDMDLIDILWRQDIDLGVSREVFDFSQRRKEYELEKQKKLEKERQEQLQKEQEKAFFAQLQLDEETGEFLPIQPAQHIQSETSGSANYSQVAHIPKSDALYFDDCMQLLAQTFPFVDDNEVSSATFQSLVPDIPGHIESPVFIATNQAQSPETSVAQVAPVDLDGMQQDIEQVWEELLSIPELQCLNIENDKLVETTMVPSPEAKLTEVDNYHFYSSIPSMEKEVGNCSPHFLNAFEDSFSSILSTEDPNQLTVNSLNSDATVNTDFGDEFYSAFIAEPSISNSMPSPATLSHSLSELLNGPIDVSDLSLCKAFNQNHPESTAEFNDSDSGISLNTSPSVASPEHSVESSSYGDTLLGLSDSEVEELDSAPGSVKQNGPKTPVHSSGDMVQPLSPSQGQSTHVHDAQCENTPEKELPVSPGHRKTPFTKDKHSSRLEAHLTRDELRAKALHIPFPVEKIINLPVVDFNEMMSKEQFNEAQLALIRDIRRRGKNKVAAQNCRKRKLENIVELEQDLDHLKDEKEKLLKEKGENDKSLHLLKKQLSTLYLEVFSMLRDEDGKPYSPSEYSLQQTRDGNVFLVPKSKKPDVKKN
# Experiment: Activation of Nrf2 (unknown origin) expressed in human HepG2 cells after 5 hrs by ARE-driven luciferase reporter gene assay
row,EC50 [µM],SMILES
1,4.4,COc1ccccc1/C=C/c1ccccc1
2,12.4,Fc1ccc(/C=C/c2ccccc2)cc1
3,3.8,COc1cccc(/C=C/c2ccccc2F)c1
4,1.6,Fc1ccccc1/C=C/c1ccc(Cl)cc1
5,> 15,COc1ccc(/C=C/c2ccc(F)c(F)c2)cc1
6,0.45,Fc1cccc(/C=C/c2ccc(F)cc2F)c1
7,> 15,Fc1ccc(/C=C/c2ccc(F)c(F)c2)cc1
8,1.5,Cc1ccc(/C=C/c2cccc(C(F)(F)F)c2)cc1
9,2.7,COc1cccc(/C=C/c2ccc(C(C)C)cc2)c1OC
10,3.6,Fc1ccc(/C=C/c2ccccc2F)cc1
11,11.4,Oc1ccc(/C=C/c2ccccc2F)cc1
12,3.1,Fc1cccc(/C=C/c2ccccc2)c1
13,3.2,COc1ccc(/C=C/c2cc(F)ccc2F)cc1
14,4.2,COc1ccc(/C=C/c2ccc(F)cc2)cc1
15,> 15,Fc1cccc(/C=C/c2ccccc2F)c1
16,> 15,COc1ccc(/C=C/c2cccc(O)c2)cc1
17,1.4,Fc1ccccc1/C=C/c1c(F)cccc1F
18,3.7,COc1ccc(/C=C/c2ccc(O)c(OC)c2)cc1
19,0.7,Fc1ccccc1/C=C/c1ccccc1

row,EC50 [µM],SMILES
1,1.3,Cc1ccc(/C=C/c2ccc(F)cc2)cc1
2,3.1,COc1ccccc1/C=C/c1ccccc1F
3,6,COc1cccc(/C=C/c2ccc(F)cc2)c1
4,2.6,COc1ccc(/C=C/c2ccc(F)cc2)cc1OC
5,5.1,COc1ccc(OC)c(/C=C/c2ccc(F)cc2)c1
6,6.9,Fc1cccc(F)c1/C=C/c1ccccc1
7,2.6,Cc1ccc(/C=C/c2ccc(F)c(F)c2)cc1
8,4.3,Fc1ccccc1/C=C/c1ccccc1F
9,1,Fc1cccc(/C=C/c2cccc(F)c2)c1
10,0.65,Fc1ccc(/C=C/c2cccc(F)c2)cc1
11,9.6,Fc1ccc(/C=C/c2ccccc2F)c(F)c1
12,0.9,Fc1ccc(/C=C/c2ccc(F)cc2F)cc1
13,2.9,Fc1ccc(/C=C/c2cc(F)ccc2F)cc1
14,> 15,COc1cccc(/C=C/c2cc(OC)ccc2OC)c1
15,3.7,Cc1ccc(/C=C/c2cccc([N+](=O)[O-])c2)cc1
16,2.2,COc1cccc(/C=C/c2ccc(C(F)(F)F)cc2)c1OC
17,2.3,COc1cccc(/C=C/c2cccc(F)c2)c1
18,1.1,COc1cccc(/C=C/c2ccc(C)cc2)c1OC
19,1.9,COc1cccc(/C=C/c2cccc(F)c2)c1OC

row,EC50 [µM],SMILES
1,2.9,COc1cccc(/C=C/c2ccc(F)cc2)c1OC
2,4.7,COc1cccc(/C=C/c2ccccc2)c1OC
3,1.4,Cc1ccc(/C=C/c2ccccc2F)cc1
4,> 15,Fc1ccc(/C=C/c2ccccc2F)cc1F
5,5.9,Fc1ccc(F)c(/C=C/c2ccccc2F)c1
6,0.3,Fc1cccc(/C=C/c2cc(F)ccc2F)c1
7,2,Cc1ccc(/C=C/c2ccc(F)cc2F)cc1
8,4.4,COc1cccc(/C=C/c2ccccc2OC)c1
9,3,O=[N+]([O-])c1cccc(/C=C/c2ccccc2)c1
10,0.8,COc1ccc(OC)c(/C=C/c2ccc(OC)cc2OC)c1
11,0.8,Cc1ccc(/C=C/c2cccc(F)c2)cc1
12,5,Fc1cccc(/C=C/c2ccc(F)c(F)c2)c1
13,3.3,COc1ccc(/C=C/c2cccc([N+](=O)[O-])c2)cc1
14,9.5,"COc1ccc(/C=C/c2cccc(F)c2)cc1OC [4-(3-fluorostyryl)-1,2-dimethoxybenzene]"
15,5.4,"Oc1ccc(/C=C/c2cc(O)cc(O)c2)cc1 [5-[(E)-2-(4-hydroxyphenyl)ethenyl]benzene-1,3-diol]"
16,4.6,"COc1ccc(/C=C/c2ccc(OC)cc2OC)cc1 [(E)2'',4,4''-Trimethoxystilbene]"
17,3.1,"COc1ccc(/C=C/c2ccccc2Cl)cc1 [US8980954, 6j]"
18,8.9,"COc1ccc(/C=C/c2cccc(F)c2)cc1 [US8980954, 6n]"
19,5.4,"COc1ccc(/C=C/c2ccccc2F)cc1 [US8980954, 6p]"
